# Test results published in patent publication US20230226095A1, “METHODS AND COMPOSITIONS FOR TREATING C[…]” (The Children's Medical Center Corporation, priority 2020, published 2023).
# B1: recombinant amphiregulin: recombinant epidermal growth factor-like cytokine amphiregulin, necessary for tissue repair (protein, UniProt P15514 101-187, looked up)
# Amphiregulin: SVRVEQVVKPPQNKTESENTSDKPKRKKKGGKNGKNRRNRKKKNPCNAEFQNFCIHGECKYIEHLEAVTCKCQQEYFGERCGEKSMK
# How the values were obtained:
# lung tissue Treg cells = assay: Daily intra-tracheal instillation of Poly I:C, flow cytometry of lung T cells; format: in vivo, mice
# Description: To investigate the mechanism by which Notch4 licenses lung tissue inflammation in viral respiratory infections, its role in Poly I:C-induced airway inflammation was first examined. Poly I:C stimulates Toll like receptor 3 and the downstream viral RNA sensors cytoplasmic retinoic acid-inducible gene I (RIG-I) and melanoma differentiation-associated protein 5 (MDA5), thus providing a proxy model of RNA viral infections (Broggi et al., 2020; Iwasaki and Pillai, 2014; Kato et al., 2006). […] Treg cell specific deletion of Notch4 using a Foxp3-driven Cre recombinase (Foxp3YFPCre) and floxed Notch4 allele (Foxp3YFPCreNotch4Δ/Δ) protected the mice from the weight loss induced by the Poly I:C treatment (data not shown).
# (§1) Polyinosinic-polycytidylic acid (Poly I:C) mouse model. Mice were treated intratracheally with 2.5 mg/kg of Poly I:C HMW (InvivoGen) daily for six consecutive days. The weight of the mice was recorded daily upon application of the Poly I:C. The mice were subjected to airway hyperresponsiveness at day 7, then euthanized and analyzed. For blockading amphiregulin, mice were treated with a peptide spanning amino acids 91140 of the middle region of the human amphiregulin preproprotein (amphiregulin91-140 peptide; Mybiosource). The peptide was given intratracheally at 10 µg/ml in PBS in a final volume of 100 µl. For the amphiregulin neutralizing antibody tests, the mice were given intraperitoneally 20 µg of goat anti-mouse amphiregulin mAb (clone AF989; R&D systems) or isotype control mAb (clone AB-108-C; R&D systems) daily for the duration of the experiment.
# Treg cells = assay: In vitro induction of Notch4 expression in Treg cells; format: cell-based; settings: Treg cells from PBS or Poly I:C-treated mice
# Experimental: To further elucidate the mechanisms of Notch4 induction in Treg cells, in vitro studies were conducted to examine the capacity of Poly I:C and cytokine treatment to upregulate Notch4 expression in Treg cells isolated from PBS or Poly I:C-treated mice.
# lung macrophages = assay: Lung macrophage M1/M2 polarization in vitro upon Poly I:C treatment; format: cell-based, mice; settings: in vitro treatment with Poly I:C
# Experimental: Regulatory T-cell co-cultures with macrophages. Macrophages cells are isolated from lungs of Poly I:C-treated mice. Macrophages were isolated based on CD45^+ F4/80^+ MHCII^+. Macrophages were then co-cultured (at 1:1 concentration) with lungs Treg cells from Foxp3^YFPCre or Foxp3^YFPCreNotch4^Δ/Δ mice Poly I:C-treated mice. Cells were treated with Poly I:C at a concentration of 10 ug/ml for three days. After 72 h, M1 (F4/80^+ MHCII^+ CD68^+ CD80^+CD86^+) and M2 (F4/80^+ MHCII^+ CD163^+ CD206^+) polarization was measured by flow cytometric analysis.
# M1 and M2 gating strategy. M1 was defined as follows: CD45^+CD4^-F4/80^+MHCII^+ CD68^+ CD80^+CD86^+ while M2 macrophages were defined as follows: CD45^+CD4^-F4/80^+ MHCII+CD163+CD206+.
# [1] = tested on: Foxp3YFPCre mice treated with Poly I:C; assay: Recombinant amphiregulin therapy in Poly I:C-induced lung inflammation; format: in vivo; settings: data not shown
# Description: To establish the role of amphiregulin in the protection against lung inflammation induced by Notch4 depletion, the capacity of recombinant amphiregulin therapy to rescue Poly I:C-induced lung inflammation was examined. […] Recombinant amphiregulin also reversed the skewing of lung macrophages towards an M1 phenotype upon in vitro treatment with Poly I:C (FIG. 7H), mirroring the same effect of Foxp3YFPCreNotch4Δ/Δ Treg cells (data not shown).
# as §1
# [2] = daily intra-tracheal for 6 consecutive days
Molecule,expression of Hippo pathway effector Yap in lung tissue Treg cells (lung tissue Treg cells; Poly I:C treatment),expression of Wnt pathway effector beta-Catenin in lung tissue Treg cells (lung tissue Treg cells; Poly I:C treatment),expression of Notch4 on CD4+ Teff cells (lung tissue Treg cells; [2]),frequencies and absolute numbers of Notch4 expressing lung tissue Treg cells and MFI of Notch4 (lung tissue Treg cells; [2]),Notch4 expression in lung Treg cells (Treg cells),Notch4 expression in splenic Treg cells (Treg cells),skewing of lung macrophages towards an M1 phenotype (lung macrophages),epithelial barrier function ([1]; Poly I:C treatment),inflammatory responses induced by Poly I:C treatment [1],weight loss induced by Poly I:C treatment [1]
Polyinosinic-polycytidylic acid [Poly I:C],potently induced,unchanged,minimal expression,sharp progressive increase,increased Notch4 expression,not splenic,–,–,–,–
B1,–,–,–,–,–,–,reversed,restoration of an intact epithelial barrier function,largely abrogated,largely abrogated
